In publication PMC10683472, “Deep Learning-Driven Library Design for the De Novo Discovery of Bioactive Thiopeptides” (ACS Central Science, 2023):
Like-named read-outs stand apart in the source and are kept apart here. Where a SMILES comes first, the peptide text is derived from it. Where no end group is shown, it is not given here. pyridine‑bisazole = not defined here

What was measured:
[1] = target: T1, Biotinylated IRAK4 (kinase domain, amino acids 1-460; NP_057207.2) (Homo sapiens, UniProt Q9NWZ3); assay: Surface plasmon resonance binding to IRAK4
T1 construct: acids 1-460; NP_057207.2) was purchased from Carna Biosciences; purchased Carna Biosciences (Kobe, Japan)
T1 sequence (Q9NWZ3 1-460): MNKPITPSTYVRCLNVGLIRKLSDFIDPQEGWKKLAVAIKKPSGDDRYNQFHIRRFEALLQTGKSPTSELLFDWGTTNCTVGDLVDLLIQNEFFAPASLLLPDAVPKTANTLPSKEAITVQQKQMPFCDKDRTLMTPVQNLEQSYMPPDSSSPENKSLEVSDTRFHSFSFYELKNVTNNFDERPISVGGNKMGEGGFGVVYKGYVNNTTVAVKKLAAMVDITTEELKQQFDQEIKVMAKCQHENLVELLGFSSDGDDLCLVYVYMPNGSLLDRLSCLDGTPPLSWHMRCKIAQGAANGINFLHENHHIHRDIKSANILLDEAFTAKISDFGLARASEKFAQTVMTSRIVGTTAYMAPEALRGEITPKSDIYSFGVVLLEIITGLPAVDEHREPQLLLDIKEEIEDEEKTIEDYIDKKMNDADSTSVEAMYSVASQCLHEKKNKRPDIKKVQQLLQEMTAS
Text: Reagents were purchased from Nacalai Tesque, Wako Pure Chemical Industries, Sigma-Aldrich Japan, or TCI Chemicals and were used as received. Biotinylated IRAK4 (kinase domain, amino acids 1-460; NP_057207.2) was purchased from Carna Biosciences (Kobe, Japan). Recombinant human TLR10 Fc Chimera protein (extracellular domain, amino acid 20-576; Q9BXR5) was purchased from R&D system (#6619-TR-050). Anti-HA magnetic beads were from Pierce Thermo Fisher Scientific (#88836). Magnetic beads with immobilized streptavidin were from Invitrogen (Dynabeads Streptavidin C1, # 65001). Magnetic beads with immobilized streptavidin were from Invitrogen (Dynabeads Streptavidin M280, #11206D).
Protein purification and synthesis of Streptomyces lactacystinaeus tRNAGlu were done as previously described.1–3 Protein concentration measurements were carried out on a Nanodrop 2000c spectrophotometer (Thermo Scientific) equipped with a 5 mm pathlength quartz cuvette using extinction coefficient values calculated with ExPASy ProtParam tool (https://web.expasy.org/protparam).
Biochemical measurements (sections 2.10 – 2.14) were performed in triplicate or more. Most experiments were reproduced to an analogous outcome at least once. In the cases where the determination of biophysical parameters involved cell assay (CP50 and IC50), reported are standard errors of the fit; otherwise, error bars are standard deviations.
RNA extracted from the gel with 300 mM NaCl were collected by ethanol precipitation followed by centrifugation (15300 g for 15 min) and dissolved in water for storage. tRNAini was aminoacylated with eFx using biotin-Phe-CME as a substrate. tRNAini (25 µM) and eFx (25 µM) were incubated with biotin-Phe-CME (5 mM) in HEPES-KOH buffer (50 mM; pH 7.5) containing 600 mM MgCl2 on ice for 2 h. The reactions were stopped with the addition of 300 mM NaOAc (pH 5.2), and precipitated with ethanol. Precipitated RNA was recovered by centrifugation (15300 g for 15 min). The pellet was washed with 70% ethanol in water (v/v) containing 100 mM NaOAc (pH 5.2) and used in translation.
2.10. Surface plasmon resonance
Binding affinities between the thiopeptides and IRAK4/TLR10 were measured with a Biacore 8K instrument (GE Healthcare) at 25 °C. The assay buffer for IRAK4 binding analysis contained 50 mM Tris (pH 7.5), 150 mM NaCl, 10 mM MgCl2, 0.05% (v/v) tween-20 and 0.1% (v/v) DMSO. The […]
Biotinylated IRAK4 was immobilized on a Biacore CAP chip (GE Healthcare) to a surface density […]
step was allowed to proceed for 480 s. Kinetic parameters and affinities of the interaction were […]
provided by the manufacturer. The interaction sensorgrams were measured as single -cycle […]
Kinetic parameters and affinities of the
Evaluation Software v.3.0 (GE Healthcare).

[2] = tested on: lipopolysaccharide-induced NF-κB signaling in THP1-XBlue cells; assay: NF-kB signaling pathway inhibition assay (SEAP reporter, LPS-stimulated); type: cell-based; conditions: THP1-XBlue monocytes, 6 h pre-treatment, LPS-EK 30 ng/mL, SEAP read 20 h after induction
Procedure: (§1) 2.13. NF-kB signaling pathway inhibition assay
(§2) THP-1 Cellular Assay. THP1-XBlue cells containing an NF-kB-inducible secreted embryonic alkaline phosphatase (SEAP) reporter gene (InvivoGen) were seeded to 96-well assay plates (10^5 cells/well) with RPMI 1640 culture medium containing 10% fetal calf serum. The cells were pre-treated with various concentration of analyte thiopeptide inhibitor in 0.1% DMSO and incubated at 37 °C for 6 h. LPS-EK (30 ng/mL, InvivoGen) was subsequently added to activate the NF-kB signalling for 20 h. To quantitate SEAP activity, supernatants were harvested (300 g, 5min) and mixed with Quanti-Blue (InvivoGen) detection reagent following the manufacturer’s instructions.
(§3) Cells were assayed with cell counting kit-8 in parallel to rule out potential cytotoxicity. The plates

THP1-XBlue cells = assay: Cell viability with Cell Counting Kit-8
Procedure: as §1, §2, §3

[3] = tested on: HaloTag expressing HEK293H cells; assay: Chloroalkane penetration assay (CAPA); conditions: 18 h, chloroalkane tag-containing derivatives IR1-ct and IR5-ct
Text: The role of IRAK4 as a kinase acting downstream of TLR and interleukin-1 receptors to phosphorylate IRAK1 and transduce immunological signals is well-established.[37] […] Therefore, we investigated the inhibitory activity of thiopeptides IR1, 5, 8, and 11. […] We first prepared chloroalkane tag-containing derivatives, IR1-ct and IR5-ct (S.I. 5.3), and utilized them in a chloroalkane penetration assay[49] to test their cellular uptake. […]

Serum stability assay = type: in vitro ADME; conditions: pH 7.6; human serum, 37 °C, LC/MS; read-out: serum stability τ1/2 (converted)
IRAK4 [4] = target: T2, IRAK4 (Homo sapiens, UniProt Q9NWZ3); assay: biochemical
T2 sequence (Q9NWZ3 1-460): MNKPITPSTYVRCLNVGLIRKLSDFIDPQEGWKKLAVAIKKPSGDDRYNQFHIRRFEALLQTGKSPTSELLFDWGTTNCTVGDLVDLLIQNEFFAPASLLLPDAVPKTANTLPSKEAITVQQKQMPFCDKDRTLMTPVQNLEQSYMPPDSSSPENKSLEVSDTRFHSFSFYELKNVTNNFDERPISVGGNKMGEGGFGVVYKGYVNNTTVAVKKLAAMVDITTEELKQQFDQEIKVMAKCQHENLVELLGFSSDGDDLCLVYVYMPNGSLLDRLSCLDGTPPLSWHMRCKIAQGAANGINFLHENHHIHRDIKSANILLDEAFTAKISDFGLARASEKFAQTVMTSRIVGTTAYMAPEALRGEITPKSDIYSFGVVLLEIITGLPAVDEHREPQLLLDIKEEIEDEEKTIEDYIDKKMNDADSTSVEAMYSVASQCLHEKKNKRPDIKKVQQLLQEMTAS

IRAK4 [5] = target: T2, IRAK4; assay: Single-round mRNA display binding assay (qPCR), IRAK4; design: acids 1-460; NP_057207.2) was purchased from Carna Biosciences; purchased Carna Biosciences (Kobe, Japan); conditions: ratio of cDNA recoveries (qPCR), IRAK4 pulldown over beads only, single-round selection
IRAK4 [6] = target: T2, IRAK4; assay: mRNA display affinity selection against IRAK4, NGS abundance; type: binding; design: acids 1-460; NP_057207.2) was purchased from Carna Biosciences; purchased Carna Biosciences (Kobe, Japan); conditions: IRAK4 selection, NGS abundance rank
[7] = target: T3, interleukin-1 receptor-associated kinase 4 (UniProt Q9NWZ3 1-460); assay: cell-based or functional assay
T3 sequence (looked up): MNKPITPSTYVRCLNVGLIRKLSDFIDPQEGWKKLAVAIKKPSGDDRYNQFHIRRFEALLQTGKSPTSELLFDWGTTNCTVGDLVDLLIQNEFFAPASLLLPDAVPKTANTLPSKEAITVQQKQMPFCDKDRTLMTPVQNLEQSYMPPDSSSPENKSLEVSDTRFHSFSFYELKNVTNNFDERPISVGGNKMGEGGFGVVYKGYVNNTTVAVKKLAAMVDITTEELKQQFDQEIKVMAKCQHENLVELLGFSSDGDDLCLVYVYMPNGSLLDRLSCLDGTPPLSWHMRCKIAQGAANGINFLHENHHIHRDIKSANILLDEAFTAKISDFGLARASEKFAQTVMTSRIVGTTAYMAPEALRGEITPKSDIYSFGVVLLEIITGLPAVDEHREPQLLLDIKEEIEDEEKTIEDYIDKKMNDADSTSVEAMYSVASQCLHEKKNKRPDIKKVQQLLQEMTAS

[8] = target: T3, interleukin-1 receptor-associated …; assay: SPR; synthetic thiopeptides and target protein; conditions in S.I. 2.10 (not shown); conditions: both partners purified
[9] = target: T4, toll-like receptor 10, extracellular domain (UniProt Q9BXR5 20-576); assay: as above; conditions: both partners purified
T4 construct: toll-like receptor 10 (TLR10), extracellular domain; The extracellular domain is stated for the SPR experiment; also called TLR10; TLR10 cell surface receptor
T4 sequence (looked up): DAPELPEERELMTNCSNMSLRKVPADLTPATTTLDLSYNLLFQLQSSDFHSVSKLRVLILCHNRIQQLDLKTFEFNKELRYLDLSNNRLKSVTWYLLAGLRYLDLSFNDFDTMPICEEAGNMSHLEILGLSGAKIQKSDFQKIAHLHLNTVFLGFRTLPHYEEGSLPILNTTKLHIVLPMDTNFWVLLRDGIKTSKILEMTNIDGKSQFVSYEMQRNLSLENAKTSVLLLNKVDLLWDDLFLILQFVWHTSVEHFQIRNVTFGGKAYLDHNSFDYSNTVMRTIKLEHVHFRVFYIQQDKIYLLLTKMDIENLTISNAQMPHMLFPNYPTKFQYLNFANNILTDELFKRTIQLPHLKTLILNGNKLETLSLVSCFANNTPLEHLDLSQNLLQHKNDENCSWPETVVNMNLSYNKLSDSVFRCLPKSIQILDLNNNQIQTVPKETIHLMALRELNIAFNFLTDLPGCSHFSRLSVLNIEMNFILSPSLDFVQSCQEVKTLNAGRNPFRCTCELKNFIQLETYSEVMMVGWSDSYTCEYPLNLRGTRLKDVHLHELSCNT

C=C1NC(=O)C(=CC)NC(=O)[C@H](Cc2c[nH]c3ccccc23)NC(=O)[C@H](Cc2c[nH]cn2)NC(=O)[C@H](Cc2c[nH]c3ccccc23)NC(=O)[C@H]([C@@H](C)O)NC(=O)[C@H]([C@@H](C)CC)NC(=O)[C@H](Cc2ccccc2)NC(=O)[C@H](CCC(N)=O)NC(=O)[C@H](CCCNC(=N)N)NC(=O)[C@H](CCCCN)NC(=O)[C@H](CCCC)NC(=O)[C@H](CO)NC(=O)[C@H](Cc2c[nH]c3ccccc23)NC(=O)c2ccc(-c3nc(C(=O)OC)cs3)nc2-c2csc1n2 [IR1] (HELM PEPTIDE1{W.S.[Nle].K.R.Q.F.I.T.W.H.W.[CC=C(N[*:1])C(=O)[*:2]]}|CHEM1{[C=C(N[*:2])c1nc(-c2nc(-c3nc(C(=O)OC)cs3)ccc2C(=O)[*:1])cs1]}$PEPTIDE1,CHEM1,1:R1-1:R1|PEPTIDE1,CHEM1,13:R2-1:R2$$$V2.0; bridges inferred)
koff [1]: 0.00054 s⁻¹ | kon [1]: 2930 M⁻¹ s⁻¹ | IC50 [2]: 7 µM | cytotoxicity (Cell Counting Kit-8) (THP1-XBlue cells): not cytotoxic | CP50 (midpoint internalization concentration) [3]: 2.4 µM | half-life at 10 µM (Serum stability assay): 3.9 ± 0.1 h | IC50 (IRAK4 [4]): 3.1 ± 0.3 µM | display P/N ratio (IRAK4 [5]): 1829 | rank in pulldown(+) (IRAK4 [6]): 3 | rank in pulldown(–) (IRAK4 [6]): 1

C=C1NC(=O)[C@H](CCCCN)NC(=O)[C@H](Cc2ccc(O)cc2)NC(=O)[C@H]([C@@H](C)CC)NC(=O)[C@H](CCCNC(=N)N)NC(=O)[C@H](CCCNC(=N)N)NC(=O)[C@H](CCCCN)NC(=O)[C@H](Cc2ccccc2)NC(=O)[C@H](CC(C)C)NC(=O)[C@H](CCSC)NC(=O)[C@H](CO)NC(=O)[C@H](Cc2c[nH]c3ccccc23)NC(=O)c2ccc(-c3nc(C(=O)OC)cs3)nc2-c2csc1n2 [IR5] (HELM PEPTIDE1{W.S.M.L.F.K.R.R.I.Y.K}|CHEM1{[C=C(N[*:2])c1nc(-c2nc(-c3nc(C(=O)OC)cs3)ccc2C(=O)[*:1])cs1]}$PEPTIDE1,CHEM1,1:R1-1:R1|PEPTIDE1,CHEM1,11:R2-1:R2$$$V2.0; bridges inferred)
koff ([1]; SPR, IRAK4, read-out: koff): 0.0037 s⁻¹ | kon ([1]; SPR, IRAK4, read-out: kon): 2.92e+06 M⁻¹ s⁻¹ | IC50 [2]: 7.8 µM | cytotoxicity (Cell Counting Kit-8) (THP1-XBlue cells; at the tested concentrations): not cytotoxic | CP50 (midpoint internalization concentration) [3]: 14.8 µM | half-life at 10 µM (Serum stability assay): 1.3 ± 0.02 h | IC50 (IRAK4 [4]): 5.1 ± 0.4 µM | display P/N ratio (IRAK4 [5]): 376 | rank in pulldown(+) (IRAK4 [6]): 1 | rank in pulldown(–) (IRAK4 [6]): 2

B1: thiopeptide IR5 (synthetic) (peptide)
chain: SWSMLFKRRIYKSCSC
modifications: bridge (positions not given here) via pyridine‑bisazole; reading uncertain; also: macrocyclic lactazole-like thiopeptide with pyridine-bisazole moiety, places not given here, dehydroamino acids, places not given here
IC50, lipopolysaccharide-induced NF-κB signaling (secreted alkaline phosphatase reporter) in THP1-XBlue monocytes [7]: 7.8 µM | Kd [8]: 0.0013 µM

B2: thiopeptide TL20 (synthetic) (peptide)
chain: SWSLELSRVNVVIHSCSC
modifications: bridge (positions not given here) via pyridine‑bisazole; reading uncertain; also: macrocyclic lactazole-like thiopeptide with pyridine-bisazole moiety, places not given here, dehydroamino acids, places not given here
Kd [9]: 0.3 µM
